{"source": "patent US7998958B2", "about": "“Substituted N-arylsulfonylheterocyclic amines as gamma-secretase inhibitors” (Schering Corporation, priority 2004, dated 2011)"}
{"test_system": "gamma-secretase", "assay": "Gamma-secretase activity in membranes of 293 cells expressing C99 (SPC99-Ion), Aβ 40 / Aβ 42 by ECL immunoassay", "assay_type": "biochemical", "conditions": "gamma-secretase membrane assay; single values listed after 'within the range of about 1 nM to about 25 nM, i.e.'", "method": "Gamma-secretase activity was determined as described by Zhang et al. (Biochemistry, 40 (16), 5049-5055, 2001), which is herein incorporated by reference. Activity is expressed either as a percent inhibition or as the concentration of compound producing 50% inhibition of enzyme activity.\nReagents. Antibodies W02, G2-10, and G2-11 were obtained from Dr. Konrad Beyreuther (University of Heidelberg, Heidelberg, Germany). W02 recognizes residues 5-8 of Aβ peptide, while G2-10 and G2-11 recognize the specific C-terminal structure of Aβ 40 and Aβ42, respectively. Biotin-4G8 was purchased from Senetec (St. Louis, Mo.). All tissue culture reagents used in this work were from Life Technologies, Inc., unless otherwise specified. Pepstatin A was purchased from Roche Molecular Biochemicals; DFK167 was from Enzyme Systems Products (Livermore, Calif.).\ncDNA Constructs, Tissue Culture, and Cell Line Construction. The construct SPC99-Ion, which contains the first 18 residues and the C-terminal 99 amino acids of APP carrying the London mutation, has been described (Zhang, L., Song, L., and Parker, E. (1999) J. Biol. Chem. 274, 8966-8972). Upon insertion into the membrane, the 17 amino acid signal peptide is processed, leaving an additional leucine at the N-terminus of Aβ. SPC99-Ion was cloned into the pcDNA4/TO vector (Invitrogen) and transfected into 293 cells stably transfected with pcDNA6/TR, which is provided in the T-REx system (Invitrogen). The transfected cells were selected in Dulbecco's modified Eagle's media (DMEM) supplemented with 10% fetal bovine serum, 100 units/mL penicillin, 100 µg/mL streptomycin, 250 µg/mL zeocin, and 5 µg/mL blasticidin (Invitrogen). Colonies were screened for Aβ production by inducing C99 expression with […] tetracycline for 16-20 h and analyzing conditioned media with a sandwich immunoassay (see below). One of the clones, designated as pTRE.15, was used in these studies.\nMembrane Preparation. C99 expression in cells was induced with […] tetracycline for 20 h. The cells were pretreated with […] 12-myristate 13-acetate (PMA) and […] brefeldin A (BFA) for 5-6 h at 37° C. before harvesting. The cells were washed 3 times with cold phosphate-buffered saline (PBS) and harvested in buffer A containing 20 mM Hepes (pH 7.5), 250 mM sucrose, 50 mM KCl, 2 mM EDTA, 2 mM EGTA, and Complete protease inhibitor tablets (Roche Molecular Biochemicals). The cell pellets were flash-frozen in liquid nitrogen and stored at −70 C before use.\nTo make membranes, the cells were resuspended in buffer A and lysed in a nitrogen bomb at 600 psi. The cell lysate was centrifuged at 1500 g for 10 min to remove nuclei and large cell debris. The supernatant was centrifuged at 100000 g for 1 h. The membrane pellet was resuspended in buffer A plus 0.5 M NaCl, and the membranes were collected by centrifugation at 200000 g for 1 h. The salt-washed membrane pellet was washed again in buffer A and centrifuged at 100000 g for 1 h. The final membrane pellet was resuspended in a small volume of buffer A using a Teflon-glass homogenizer. The protein concentration was determined, and membrane aliquots were flash-frozen in liquid nitrogen and stored at −70° C.\nγ-Secretase Reaction and AβAnalysis. To measure γ-secretase activity, membranes were incubated at 37° C. for 1 h in 50 μL of buffer containing 20 mM Hepes (pH 7.0) and 2 mM EDTA. At the end of the incubation, Aβ 40 and Aβ 42 were measured using an electrochemiluminescence (ECL)-based immunoassay. Aβ 40 was identified with antibody pairs TAG-G2-10 and biotin-W02, while Aβ 42 was identified with TAG-G2-11 and biotin-4G8. The ECL signal was measured using an ECL-M8 instrument (IGEN International, Inc.) according to the manufacturer's instructions. The data presented were the means of the duplicate or triplicate measurements in each experiment. The characteristics of γ-secretase activity described were confirmed using more than five independent membrane preparations.", "units": {"IC50": "nM"}}
{"smiles": "O=C(CC1([C@H]2COC[C@@H](C3CC3)N2S(=O)(=O)c2ccc(Cl)cc2)CC1)N1C2CCC1CC(N1CCCCC1)C2", "note": "(single isomer, unassigned) [Example 142]", "IC50": 12.4}
{"smiles": "O=C(OC[C@H]1COC[C@@H](c2cc(F)cc(F)c2)N1S(=O)(=O)c1ccc(Cl)cc1)N1CCC(N2CCCCC2)CC1", "note": "[Example 2]", "IC50": 6.8}
{"smiles": "CCC[C@@H]1COC[C@H](C2(OC(=O)N3CC4CCC(C3)N4CCO)CC2)N1S(=O)(=O)c1ccc(Cl)cc1", "note": "[Example 15]", "IC50": 3.6}
{"smiles": "CC(C)(CO)N1CCN(C(=O)OC2(C3COCC(c4cc(F)cc(F)c4)N3S(=O)(=O)c3ccc(Cl)cc3)CC2)CC1", "note": "(stereo not shown) [Example 16, 4-(2-Hydroxy-1,1-dimethyl-ethyl)-piperazine-1-carboxylic acid 1-[4-(4-chloro-benzenesulfonyl)-5-(3,5-difluoro-phenyl)-morpholin-3-yl]-cyclopropyl ester]", "IC50": 1.4}
{"smiles": "O=C(OC[C@H]1COC[C@@H](C2CC2)N1S(=O)(=O)c1ccc(Cl)cc1)N1CCC(N2CCCCC2)CC1", "note": "[Example 30]", "IC50": 11.1}
{"smiles": "CC(C)(CO)N1CCN(C(=O)OC2(C3COCC(C4CC4)N3S(=O)(=O)c3ccc(Cl)cc3)CC2)CC1", "note": "(stereo not shown) [Example 35, 4-(2-Hydroxy-1,1-dimethyl-ethyl)-piperazine-1-carboxylic acid 1-[4-(4-chloro-benzenesulfonyl)-5-cyclopropyl-morpholin-3-yl]-cyclopropyl ester]", "IC50": 9.5}
{"smiles": "CCCC1(O)CCN(C(=O)OC2([C@H]3COC[C@@H](C4CC4)N3S(=O)(=O)c3ccc(Cl)cc3)CC2)C1", "note": "(stereo partly shown) [Example 36]", "IC50": 13.3}
{"smiles": "O=C(OC1([C@H]2COC[C@@H](C3CC3)N2S(=O)(=O)c2ccc(Cl)cc2)CC1)N1CC2CCC(C1)N2CCO", "note": "[Example 43]", "IC50": 7.9}
{"smiles": "O=C(O)CC1CCN(C(=O)OC2([C@H]3COC[C@@H](C4CC4)N3S(=O)(=O)c3ccc(Cl)cc3)CC2)CC1", "note": "[Example 47]", "IC50": 24.5}
{"smiles": "CN1CC2CCC(C1)N2C(=O)OC1([C@H]2COC[C@@H](C3CC3)N2S(=O)(=O)c2ccc(Cl)cc2)CC1", "note": "[Example 51]", "IC50": 6.2}
{"smiles": "CN(C)CC(=O)N1C2CCC1CN(C(=O)OC1([C@H]3COC[C@@H](C4CC4)N3S(=O)(=O)c3ccc(Cl)cc3)CC1)C2", "note": "[Example 59]", "IC50": 8.9}
{"smiles": "C[C@@H]1OC[C@H](C2(OC(=O)N3CC[C@@H](O)C3)CC2)N(S(=O)(=O)c2ccc(Cl)cc2)[C@@H]1C1CC1", "note": "[Example 69]", "IC50": 5.2}
{"smiles": "C[C@H]1OC[C@H](C2(OC(=O)N3CC4CCC(C3)N4CCO)CC2)N(S(=O)(=O)c2ccc(Cl)cc2)[C@@H]1C1CC1", "note": "[Example 75]", "IC50": 0.9}
{"smiles": "CC(C)[C@@H]1COC[C@H](C2(OC(=O)N3CCN(C(C)(C)CO)CC3)CC2)N1S(=O)(=O)c1ccc(Cl)cc1", "note": "[Example 78]", "IC50": 3.9}
{"smiles": "C[C@H]1N(S(=O)(=O)c2ccc(Cl)cc2)[C@@H](C2(OC(=O)N3CCC(C(N)=O)CC3)CC2)COC1(C)C", "note": "[Example 88]", "IC50": 6.7}
{"smiles": "CC(C)(CO)N1CCN(C(=O)OC2(C3COCC(CC4CC4)N3S(=O)(=O)c3ccc(Cl)cc3)CC2)CC1", "note": "(stereo not shown) [Example 94, 4-(2-Hydroxy-1,1-dimethyl-ethyl)-piperazine-1-carboxylic acid 1-[4-(4-chloro-benzenesulfonyl)-5-cyclopropylmethyl-morpholin-3-yl]-cyclopropyl ester]", "IC50": 2.1}
{"smiles": "O=C(OC1([C@H]2COC[C@@H](CC3CC3)N2S(=O)(=O)c2ccc(Cl)cc2)CC1)N1CC2CC1CN2CCO", "note": "(stereo partly shown) [Example 98]", "IC50": 3.6}
{"smiles": "O=C(OC1([C@H]2COC[C@@H](CC3CC3)N2S(=O)(=O)c2ccc(Cl)cc2)CC1)N1CC2CCC(C1)N2CCO", "note": "[Example 99]", "IC50": 0.9}
{"smiles": "CN1CCN(C(=O)OC2([C@H]3COC[C@@H](CC4CC4)N3S(=O)(=O)c3ccc(Cl)cc3)CC2)CC1=O", "note": "[Example 110]", "IC50": 5.7}
{"smiles": "CN1CCCN(C(=O)OC2([C@H]3COC[C@@H](CC4CC4)N3S(=O)(=O)c3ccc(Cl)cc3)CC2)CC1", "note": "[Example 122]", "IC50": 4.2}
{"smiles": "O=C(OC1([C@H]2COC[C@@H](CC3CC3)N2S(=O)(=O)c2cc(F)cc(F)c2)CC1)N1CC2CCC(C1)N2", "note": "[Example 135]", "IC50": 4.2}
{"smiles": "O=C(C(O)C1([C@H]2COC[C@@H](C3CC3)N2S(=O)(=O)c2ccc(Cl)cc2)CC1)N1CC2CCC(C1)N2", "note": "(stereo partly drawn) [Example 146, alpha-[1-[4-[(4-chlorophenyl)sulfonyl]-5(r)-cyclopropyl-3(s)-morpholinyl]cyclopropyl]-beta-oxo-3,8-diazabicyclo[3.2.1]octane-3-ethanol]", "IC50": 10.1}
